Measurements taken from ChEMBL document CHEMBL3885861, “Open TG-GATES”.

Species on record: Rattus norvegicus
Assay: Open TG-GATES - Regimen: Daily Repeat
Format: toxicity, organism-based, Sprague-Dawley
Set-up: regimen Daily Repeat, gender Male, age 6 weeks
Conditions: in vivo, po, route gavage; for APTT / Bas / Eos / Fbg / Hb / Ht / Lym / MCH / MCHC / MCV / Mono / PT / Plat / RBC / Ret / WBC: tissue Blood; for KIDNEY_L / KIDNEY_R / KIDNEY_TOTAL: tissue Kidney
[1] = 20 mg/kg, 72 h, dose level Low, time 3 day
[2] = 20 mg/kg, 72 h, tissue Plasma, dose level Low, time 3 day
[3] = 20 mg/kg, […], dose level Low, time 7 day
[4] = 20 mg/kg, […], dose level Low, time 14 day
[5] = 20 mg/kg, […], dose level Low, time 28 day
[6] = 20 mg/kg, […], tissue Plasma, dose level Low, time 7 day
[7] = 20 mg/kg, […], tissue Plasma, dose level Low, time 14 day
[8] = 20 mg/kg, […], tissue Plasma, dose level Low, time 28 day
[9] = 60 mg/kg, 72 h, dose level Middle, time 3 day

CC(C)Cc1ccc(C(C)C(=O)O)cc1 (configuration not stated) [IBUPROFEN]
APTT [1]: 21.4 s | Bas [1]: 0% | Eos [1]: 0.6% | Fbg [1]: 301 mg/dL | Hb [1]: 13.6 g/dL | Ht [1]: 39.5% | Lym [1]: 75.8% | MCH [1]: 22 pg | MCHC [1]: 34.3% | MCV [1]: 64 fL | Mono [1]: 3% | PT [1]: 15.5 s | Plat [1]: 120.5 x10_4/uL | RBC [1]: 617.6 x10_4/ul | Ret [1]: 6.7% | WBC [1]: 117.5 x10_2/uL | KIDNEY_L [1]: 1 g | KIDNEY_R [1]: 1 g | KIDNEY_TOTAL [1]: 2 g | ALP [2]: 1847.8 IU/L | ALT [2]: 42.8 IU/L | AST [2]: 75 IU/L | BUN [2]: 17.8 mg/dL | CRE [2]: 0.2 mg/dL | Ca [2]: 11 mg/dL | DBIL [2]: 0 mg/dL | GLC [2]: 182.8 mg/dL | IP [2]: 7.4 mg/dL | K [2]: 4.4 meq/L | LDH [2]: 222 IU/L | Na [2]: 141.4 meq/L | PL [2]: 152.6 mg/dL | RALB [2]: 3.1 g/dL | TBIL [2]: 0.004 mg/dL | TC [2]: 81.4 mg/dL | TG [2]: 113.6 mg/dL | TP [2]: 5.6 g/dL | gamma-GTP [2]: 1.2 IU/L | TERMINAL_BW [3]: 245.9 g | TERMINAL_BW [4]: 307.6 g | TERMINAL_BW [5]: 358.8 g | Bas [3]: 0% | Eos [3]: 1% | Fbg [3]: 311 mg/dL | Hb [3]: 13.6 g/dL | Ht [3]: 39.4% | Lym [3]: 75.6% | MCH [3]: 21.4 pg | MCHC [3]: 34.6% | MCV [3]: 61.9 fL | Mono [3]: 2.8% | PT [3]: 15.9 s | Plat [3]: 121 x10_4/uL | RBC [3]: 638 x10_4/ul | Ret [3]: 5.8% | APTT [4]: 24 s | Bas [4]: 0% | Eos [4]: 0.8% | Fbg [4]: 339.6 mg/dL | Ht [4]: 41% | Lym [4]: 80.4% | MCHC [4]: 34.6% | MCV [4]: 60.2 fL | Mono [4]: 2.2% | PT [4]: 15.8 s | Plat [4]: 116.9 x10_4/uL | RBC [4]: 682.4 x10_4/ul | Ret [4]: 4.7% | WBC [4]: 120.7 x10_2/uL | Bas [5]: 0% | Eos [5]: 1.2% | Fbg [5]: 317.5 mg/dL | Hb [5]: 14.8 g/dL | Ht [5]: 43% | Lym [5]: 78.5% | MCH [5]: 19.2 pg | MCHC [5]: 34.5% | MCV [5]: 55.8 fL | Mono [5]: 2.5% | Plat [5]: 98.8 x10_4/uL | RBC [5]: 771 x10_4/ul | Ret [5]: 2.8% | WBC [5]: 94.9 x10_2/uL | KIDNEY_L [3]: 1.1 g | KIDNEY_R [3]: 1.1 g | KIDNEY_TOTAL [3]: 2.1 g | KIDNEY_L [4]: 1.2 g | KIDNEY_R [4]: 1.2 g | KIDNEY_TOTAL [4]: 2.4 g | KIDNEY_L [5]: 1.3 g | KIDNEY_R [5]: 1.3 g | KIDNEY_TOTAL [5]: 2.5 g | ALP [6]: 1657.2 IU/L | ALT [6]: 43.6 IU/L | AST [6]: 73 IU/L | BUN [6]: 18 mg/dL | CRE [6]: 0.2 mg/dL | DBIL [6]: 0 mg/dL | GLC [6]: 183.4 mg/dL | IP [6]: 6.8 mg/dL | K [6]: 4.1 meq/L | LDH [6]: 167.2 IU/L | Na [6]: 139.8 meq/L | PL [6]: 150.8 mg/dL | RALB [6]: 3 g/dL | TBIL [6]: 0.004 mg/dL | TC [6]: 71.6 mg/dL | TG [6]: 128.2 mg/dL | TP [6]: 5.6 g/dL | gamma-GTP [6]: 2.2 IU/L | ALP [7]: 1385.4 IU/L | ALT [7]: 45 IU/L | AST [7]: 73.4 IU/L | CRE [7]: 0.2 mg/dL | DBIL [7]: 0 mg/dL | GLC [7]: 197.2 mg/dL | IP [7]: 7.2 mg/dL | K [7]: 3.9 meq/L | LDH [7]: 129.4 IU/L | Na [7]: 141.8 meq/L | PL [7]: 150 mg/dL | RALB [7]: 3.1 g/dL | TBIL [7]: 0.006 mg/dL | TC [7]: 75.4 mg/dL | TG [7]: 122.6 mg/dL | TP [7]: 5.7 g/dL | gamma-GTP [7]: 2.4 IU/L | ALP [8]: 1303 IU/L | ALT [8]: 38.8 IU/L | AST [8]: 67.5 IU/L | CRE [8]: 0.2 mg/dL | DBIL [8]: 0 mg/dL | GLC [8]: 196 mg/dL | IP [8]: 5.6 mg/dL | K [8]: 3.7 meq/L | LDH [8]: 181.8 IU/L | Na [8]: 142.5 meq/L | PL [8]: 149.8 mg/dL | RALB [8]: 3.3 g/dL | TBIL [8]: 0.005 mg/dL | TC [8]: 72.5 mg/dL | TG [8]: 129.5 mg/dL | TP [8]: 6.1 g/dL | gamma-GTP [8]: 2.8 IU/L | TERMINAL_BW [9]: 227 g | APTT [9]: 20.5 s | Bas [9]: 0%
